These are literature values, as cited in paper PMC4206604 (Journal of pharmaceutical sciences, 2014).

For the data set, the target named is T1, NTCP (Homo sapiens, UniProt Q14973).
T1 sequence (Q14973 1-349): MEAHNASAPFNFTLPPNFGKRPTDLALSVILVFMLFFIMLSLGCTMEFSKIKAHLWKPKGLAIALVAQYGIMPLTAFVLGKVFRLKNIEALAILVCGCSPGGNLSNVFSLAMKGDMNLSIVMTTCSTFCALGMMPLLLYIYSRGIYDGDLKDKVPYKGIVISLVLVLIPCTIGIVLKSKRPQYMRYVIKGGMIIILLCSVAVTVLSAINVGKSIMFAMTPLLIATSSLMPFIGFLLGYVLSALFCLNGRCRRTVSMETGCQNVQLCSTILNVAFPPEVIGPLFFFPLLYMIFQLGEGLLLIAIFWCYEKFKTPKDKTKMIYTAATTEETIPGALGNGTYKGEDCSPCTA
The note with it: read-out: NTCP Km; same cell line.

Take `C[C@H](CCC(=O)NCCS(=O)(=O)O)[C@H]1CC[C@H]2[C@@H]3[C@H](O)C[C@@H]4C[C@H](O)CC[C@]4(C)[C@H]3C[C@H](O)[C@]12C` [taurocholate]: the Km is 5.31 µM.
